Results as given in US6218398A, “Nocathiacin antibiotics” (Bristol-Myers Squibb Company, priority 1999, dated 2001).

Test system: Gram-positive bacteria
Assay: not given
Conditions: reported for known thiazolyl peptides; cited from earlier work

Compound	antimicrobial activity against Gram-positive bacteria in vitro
CO/C(C)=C1/NC(=O)[C@H]([C@@H](C)O)NC(=O)c2csc(n2)-c2cc(O)c(-c3nc(C(N)=O)cs3)nc2-c2csc(n2)[C@@H]2CSC(=O)c3[nH]c4cccc5c4c3CO[C@@H](C(NC(=O)c3csc1n3)c1nc(cs1)C(=O)N2)[C@@H](O[C@H]1C[C@](C)(O)[C@H](N(C)C)[C@H](C)O1)C(=O)OC5 [glycothiohexide-α]	potent antimicrobial activity
C=C(NC(=O)C(=C)NC(=O)c1csc(C2=N[C@@H]3c4csc(n4)[C@H]4NC(=O)c5csc(n5)[C@H]([C@](C)(O)[C@@H](C)O)NC(=O)[C@H]5CSC(=N5)/C(=C/C)NC(=O)[C@H]([C@@H](C)O)NC(=O)c5csc(n5)[C@]3(CC2)NC(=O)[C@H](C)NC(=O)C(=C)NC(=O)[C@H](C)NC(=O)[C@H]([C@@H](C)CC)N[C@@H]2C=Cc3c([C@H](C)O)cc(nc3[C@H]2O)C(=O)O[C@@H]4C)n1)C(N)=O [thiostrepton]	potent antimicrobial activity
C=C(NC(=O)c1csc(-c2nc3c(cc2O)-c2nc(cs2)C(=O)NC(C(C)O)C(=O)N/C(=C\C)c2nc(cs2)C(=O)NC2CC(O)C(=O)OCc4cccc5[nH]c(c(C)c45)C(=O)SCC(NC(=O)c4csc2n4)c2nc-3cs2)n1)C(N)=O (centres unmarked) [nosiheptide]	potent antimicrobial activity

Test system: Enterococcus faecium strain A28152
Assay: antibiotic susceptibility of the MREF strain
Format: cell-based
Conditions: strain description; source not stated

Compound	resistance/sensitivity of E. faecium strain A28152 to the antibiotic
CO[C@H]1/C=C/O[C@@]2(C)Oc3c(C)c(O)c4c(O)c(c(/C=N/N5CCN(C)CC5)c(O)c4c3C2=O)NC(=O)/C(C)=C\C=C\[C@H](C)[C@H](O)[C@@H](C)[C@@H](O)[C@@H](C)[C@H](OC(C)=O)[C@@H]1C [rifampin]	resistant
CC[C@H]1OC(=O)[C@H](C)[C@@H](O[C@H]2C[C@@](C)(OC)[C@@H](O)[C@H](C)O2)[C@H](C)[C@@H](O[C@@H]2O[C@H](C)C[C@H](N(C)C)[C@H]2O)[C@](C)(O)C[C@@H](C)C(=O)[C@H](C)[C@@H](O)[C@]1(C)O [erythromycin]	resistant
gentamicin	resistant
O=C(N[C@H](CO)[C@H](O)c1ccc([N+](=O)[O-])cc1)C(Cl)Cl [chloramphenicol]	sensitive
CN[C@H](CC(C)C)C(=O)N[C@H]1C(=O)N[C@@H](CC(N)=O)C(=O)N[C@H]2C(=O)N[C@H]3C(=O)N[C@H](C(=O)N[C@H](C(=O)O)c4cc(O)cc(O)c4-c4cc3ccc4O)[C@H](O)c3ccc(c(Cl)c3)Oc3cc2cc(c3O[C@@H]2O[C@H](CO)[C@@H](O)[C@H](O)[C@H]2O[C@H]2C[C@](C)(N)[C@H](O)[C@H](C)O2)Oc2ccc(cc2Cl)[C@H]1O [vancomycin]	resistant
CN(C)C1C(=O)C(C(N)=O)=C(O)C2(O)C(=O)C3=C(O)c4c(O)cccc4C(C)(O)C3CC12 (centres unmarked) [tetracycline]	resistant
[H]/N=C(/N)N[C@H]1[C@H](O)[C@@H](O)[C@H](O[C@@H]2O[C@@H](C)[C@](O)(C=O)[C@H]2O[C@@H]2O[C@@H](CO)[C@H](O)[C@@H](O)[C@@H]2NC)[C@@H](N/C(N)=N\[H])[C@@H]1O [streptomycin]	resistant
teicoplanin	resistant
O=C(O)c1cn(C2CC2)c2cc(N3CCNCC3)c(F)cc2c1=O [ciprofloxacin]	resistant
CC1(C)S[C@@H]2[C@H](NC(=O)Cc3ccccc3)C(=O)N2[C@H]1C(=O)O [penicillin G]	resistant
CCC[C@@H]1C[C@@H](C(=O)N[C@@H]([C@H]2O[C@H](SC)[C@H](O)[C@@H](O)[C@H]2O)[C@H](C)Cl)N(C)C1 [clindamycin]	resistant
